Several values for one entry are separate records, joined by “and”; a condition that tells them apart may be missing. Identical values can stand only once. Inconclusive results and toxic doses are left out. No stated cut-off is given here; in the data, active means T/C of 150% or more; inactive means T/C below 125%.
Test system: L1210 leukemia ip in BDF1 mice, survival T/C
Test: NCI In Vivo Anticancer Drug Screen. Data for tumor model L1210 Leukemia (intraperitoneal) in B6D2F1 (BDF1) mice
Settings: endpoint: mean survival time, higher = longer survival
How it was run: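 Antitumor effect is assessed in tumor-bearing animals. Survival in the compound arm is compared with a vehicle-dosed control arm and expressed as their quotient.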

[1] = dose: 100.0 mg/kg/injection, schedule: Q01DX001 (ip), vehicle: Klucel (hydroxypropylcellulose) (HPC)
[2] = dose: 100.0 mg/kg/injection, schedule: Q04DX002 (ip), vehicle: Klucel (hydroxypropylcellulose) (HPC)
[3] = dose: 200.0 mg/kg/injection, schedule: Q04DX002 (ip), vehicle: Klucel (hydroxypropylcellulose) (HPC)
[4] = dose: 400.0 mg/kg/injection, schedule: Q04DX002 (ip), vehicle: Klucel (hydroxypropylcellulose) (HPC)
[5] = dose: 100.0 mg/kg/injection, schedule: Q01DX001 (ip), vehicle: saline
[6] = dose: 200.0 mg/kg/injection, schedule: Q01DX001 (ip), vehicle: saline
[7] = dose: 400.0 mg/kg/injection, schedule: Q01DX001 (ip), vehicle: saline
[8] = dose: 50.0 mg/kg/injection, schedule: Q04DX003 (ip), vehicle: saline with Tween-80

Measured: T/C

O=C1NC2C3CCC(C3)C12 (configuration not stated)
inactive: dose: 10.0 mg/kg/injection, schedule: Q04DX002 (ip), vehicle: saline 90 % of control | dose: 20.0 mg/kg/injection, schedule: Q04DX002 (ip), vehicle: saline 107 % of control | dose: 40.0 mg/kg/injection, schedule: Q04DX002 (ip), vehicle: saline 93 % of control

Cc1cc(C)c(S(=O)(=O)c2ccc([N+](=O)[O-])c3ccccc23)c(C)c1
inactive: [1] 107 % of control | dose: 200.0 mg/kg/injection, schedule: Q01DX001 (ip), vehicle: Klucel (hydroxypropylcellulose) (HPC) 91 % of control | dose: 400.0 mg/kg/injection, schedule: Q01DX001 (ip), vehicle: Klucel (hydroxypropylcellulose) (HPC) 101 % of control

Cc1ccc(NC(=S)Nc2ccccc2)cc1Cl
inactive: [2] 106 % of control | [3] 100 % of control | [4] 100 % of control

CCOc1cc(OCC)c(OCC)cc1/C=C1\N=C(c2ccccc2)OC1=O
inactive: [2] 96 % of control | [3] 96 % of control | [4] 96 % of control

COc1cc2c(cc1OC)C1C(=CCC3c4cc(OC)c(OC)cc4CC[N+]31C)C=C2 (configuration not stated)
inactive: dose: 6.25 mg/kg/injection, schedule: Q01DX009 (ip), vehicle: saline with Tween-80 95 % of control | dose: 12.5 mg/kg/injection, schedule: Q01DX009 (ip), vehicle: saline with Tween-80 99 % of control | dose: 25.0 mg/kg/injection, schedule: Q01DX009 (ip), vehicle: saline with Tween-80 102 % of control

O=S1(=O)CCCCN1
inactive: dose: 44.0 mg/kg/injection, schedule: Q01DX009 (ip), vehicle: saline 101 % of control | dose: 87.5 mg/kg/injection, schedule: Q01DX009 (ip), vehicle: saline 102 % of control | dose: 175.0 mg/kg/injection, schedule: Q01DX009 (ip), vehicle: saline 98 % of control | dose: 350.0 mg/kg/injection, schedule: Q01DX009 (ip), vehicle: saline 90 % of control

Nc1ccccc1N/N=C/c1ccccc1
inactive: [5] 101 % of control | [6] 101 % of control | [7] 94 % of control

O=C(O)C1CC12c1ccccc1-c1ccccc12 (configuration not stated)
inactive: [5] 92 % of control | [6] 95 % of control

Nc1nc2c(c(=O)[nH]1)N(Cc1ccccc1)C(CNc1ccc(C(=O)NC(CCC(=O)O)C(=O)O)cc1)CN2 (configuration not stated)
inactive: dose: 100.0 mg/kg/injection, schedule: Q01DX001 (ip), vehicle: alkali diluted with saline 91 % of control | dose: 200.0 mg/kg/injection, schedule: Q01DX001 (ip), vehicle: alkali diluted with saline 94 % of control | dose: 400.0 mg/kg/injection, schedule: Q01DX001 (ip), vehicle: alkali diluted with saline 100 % of control

O=C1NC(=O)C2C3CCC(C3)C12 (configuration not stated)
inactive: dose: 6.25 mg/kg/injection, schedule: Q04DX003 (ip), vehicle: saline 105 % of control | dose: 12.5 mg/kg/injection, schedule: Q04DX003 (ip), vehicle: saline 102 % of control | dose: 25.0 mg/kg/injection, schedule: Q04DX003 (ip), vehicle: saline 102 % of control

Clc1cc(CBr)c(CBr)cc1Cl
inactive: dose: 12.5 mg/kg/injection, schedule: Q04DX003 (ip), vehicle: saline with Tween-80 94 % of control | dose: 25.0 mg/kg/injection, schedule: Q04DX003 (ip), vehicle: saline with Tween-80 97 % of control | [8] 91 % of control

CC(=O)Oc1ccc(/C=C/C(=O)O)cc1OC(C)=O
inactive: dose: 25.0 mg/kg/injection, schedule: Q04DX002 (ip), vehicle: saline with Tween-80 101 % of control | dose: 50.0 mg/kg/injection, schedule: Q04DX002 (ip), vehicle: saline with Tween-80 97 % of control | dose: 100.0 mg/kg/injection, schedule: Q04DX002 (ip), vehicle: saline with Tween-80 94 % of control | dose: 200.0 mg/kg/injection, schedule: Q04DX002 (ip), vehicle: saline with Tween-80 87 % of control | dose: 400.0 mg/kg/injection, schedule: Q04DX002 (ip), vehicle: saline with Tween-80 93 % of control

S=C(S)Nc1ccccc1
inactive: dose: 25.0 mg/kg/injection, schedule: Q01DX001 (ip), vehicle: Klucel (hydroxypropylcellulose) (HPC) 95 % of control | dose: 50.0 mg/kg/injection, schedule: Q01DX001 (ip), vehicle: Klucel (hydroxypropylcellulose) (HPC) 92 % of control | [1] 94 % of control and 95 % of control

O=C1CCCCC(=O)CCCC1
inactive: [5] 102 % of control | [6] 100 % of control | [7] 105 % of control

CC1(C)N=C(N)N=C(N)N1c1ccc2c(Cl)c(Cl)ccc2c1
inactive: [8] 106 % of control | dose: 100.0 mg/kg/injection, schedule: Q04DX003 (ip), vehicle: saline with Tween-80 107 % of control and 114 % of control | dose: 200.0 mg/kg/injection, schedule: Q04DX003 (ip), vehicle: saline with Tween-80 107 % of control

CCOC(=O)c1ccc(OC)nc1
inactive: dose: 100.0 mg/kg/injection, schedule: Q01DX009 (ip), vehicle: saline 104 % of control | dose: 200.0 mg/kg/injection, schedule: Q01DX009 (ip), vehicle: saline 102 % of control | dose: 400.0 mg/kg/injection, schedule: Q01DX009 (ip), vehicle: saline 98 % of control

O=C(O)c1cc2oc3ccccc3c2cc1O
inactive: dose: 100.0 mg/kg/injection, schedule: Q01DX009 (ip), vehicle: Klucel (hydroxypropylcellulose) (HPC) 94 % of control | dose: 100.0 mg/kg/injection, schedule: Q04DX003 (ip), vehicle: Klucel (hydroxypropylcellulose) (HPC) 98 % of control | dose: 200.0 mg/kg/injection, schedule: Q01DX009 (ip), vehicle: Klucel (hydroxypropylcellulose) (HPC) 100 % of control | dose: 200.0 mg/kg/injection, schedule: Q04DX003 (ip), vehicle: Klucel (hydroxypropylcellulose) (HPC) 95 % of control | dose: 400.0 mg/kg/injection, schedule: Q04DX003 (ip), vehicle: Klucel (hydroxypropylcellulose) (HPC) 93 % of control

CC(=O)NCCc1ccc(NCc2cnc3nc(N)nc(N)c3n2)cc1
inactive: dose: 20.0 mg/kg/injection, schedule: Q01DX009 (ip), vehicle: Klucel (hydroxypropylcellulose) (HPC) 98 % of control | dose: 40.0 mg/kg/injection, schedule: Q01DX009 (ip), vehicle: Klucel (hydroxypropylcellulose) (HPC) 96 % of control | dose: 80.0 mg/kg/injection, schedule: Q01DX009 (ip), vehicle: Klucel (hydroxypropylcellulose) (HPC) 98 % of control

CC/C=N\NC
inactive: dose: 5.0 mg/kg/injection, schedule: Q01DX001 (ip), vehicle: saline 111 % of control | dose: 6.6 mg/kg/injection, schedule: Q01DX015 (ip), vehicle: saline 94 % of control | dose: 10.0 mg/kg/injection, schedule: Q01DX001 (ip), vehicle: saline 103 % of control | dose: 10.0 mg/kg/injection, schedule: Q01DX015 (ip), vehicle: saline 94 % of control | dose: 15.0 mg/kg/injection, schedule: Q01DX015 (ip), vehicle: saline 100 % of control | dose: 20.0 mg/kg/injection, schedule: Q01DX001 (ip), vehicle: saline 112 % of control | dose: 22.5 mg/kg/injection, schedule: Q01DX015 (ip), vehicle: saline 95 % of control | dose: 40.0 mg/kg/injection, schedule: Q01DX001 (ip), vehicle: saline 120 % of control

O=C(O)/C=C/C(=O)NC1CCCCC1
inactive: dose: 100.0 mg/kg/injection, schedule: Q01DX009 (ip), vehicle: saline with Tween-80 94 % of control | dose: 200.0 mg/kg/injection, schedule: Q01DX009 (ip), vehicle: saline with Tween-80 96 % of control | dose: 400.0 mg/kg/injection, schedule: Q01DX009 (ip), vehicle: saline with Tween-80 98 % of control

Nc1nc2c(ncn2C2OC(CO)C(O)C2O)c(=O)n1N (configuration not stated)
inactive: [5] 102 % of control | [6] 101 % of control | [7] 95 % of control

Source: PubChem BioAssay AID248 (DTP/NCI, 2004)
